Assays:
Assay in all cases: Kinase inhibitor library screening, PrestoBlue cell viability, 1 or 10 μM, 72 h
[1] = system: 501Mel cells (parental); conditions: 72 h; for Cell viability in kinase inhibitor library screening, 501Mel Parental, 1μΜ / Cell viability in kinase inhibitor library screening, 501Mel Parental, 10μΜ: in %; for Cell viability in kinase inhibitor library screening, 501Mel Parental, 1μΜ / Cell viability in kinase inhibitor library screening, 501Mel Parental, 10μΜ / cell viability (kinase inhibitor library screening): 501Mel Parental
How it was run: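 Single-point screen at two doses over three days. Parental and BRAF-inhibitor-resistant sublines (XP: Vemurafenib; GP: Dabrafenib) were assessed by PrestoBlue viability, reported relative to untreated cells.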

[2] = system: 501Mel-GP cells (Dabrafenib-resistant); conditions: 72 h; for Cell viability in kinase inhibitor library screening, 501Mel GP, 1μΜ / Cell viability in kinase inhibitor library screening, 501Mel GP, 10μΜ: in %; for Cell viability in kinase inhibitor library screening, 501Mel GP, 1μΜ / Cell viability in kinase inhibitor library screening, 501Mel GP, 10μΜ / cell viability (kinase inhibitor library screening): 501Mel GP
[3] = system: 501Mel-XP cells (Vemurafenib-resistant); conditions: 72 h; for Cell viability in kinase inhibitor library screening, 501Mel XP, 1μΜ / Cell viability in kinase inhibitor library screening, 501Mel XP, 10μΜ: in %; for Cell viability in kinase inhibitor library screening, 501Mel XP, 1μΜ / Cell viability in kinase inhibitor library screening, 501Mel XP, 10μΜ / cell viability (kinase inhibitor library screening): 501Mel XP
[4] = system: A375 cells (parental); conditions: for Cell viability in kinase inhibitor library screening, A375 Parental, 10μΜ / Cell viability in kinase inhibitor library screening, A375 Parental, 1μΜ / cell viability (kinase inhibitor library screening): 72 h, A375 Parental
[5] = system: A375-GP cells (Dabrafenib-resistant)
[6] = system: A375-XP cells (Vemurafenib-resistant); conditions: for Cell viability in kinase inhibitor library screening, A375 XP, 1μΜ / Cell viability in kinase inhibitor library screening, A375 XP, 10μΜ / cell viability (kinase inhibitor library screening): 72 h, A375 XP
[7] = system: IGR37 cells (parental); conditions: for Cell viability in kinase inhibitor library screening, IGR37 Parental, 1μΜ / Cell viability in kinase inhibitor library screening, IGR37 Parental, 10μΜ / cell viability (kinase inhibitor library screening): 72 h, IGR37 Parental; for Cell viability in kinase inhibitor library screening, IGR37 Parental, 1μΜ / Cell viability in kinase inhibitor library screening, IGR37 Parental, 10μΜ: in %
[8] = system: IGR37-GP cells (Dabrafenib-resistant); conditions: for Cell viability in kinase inhibitor library screening, IGR37 GP, 10μΜ / Cell viability in kinase inhibitor library screening, IGR37 GP, 1μΜ / cell viability (kinase inhibitor library screening): 72 h, IGR37 GP; for Cell viability in kinase inhibitor library screening, IGR37 GP, 1μΜ: in %
[9] = system: IGR37-XP cells (Vemurafenib-resistant); conditions: for Cell viability in kinase inhibitor library screening, IGR37 XP, 10μΜ / Cell viability in kinase inhibitor library screening, IGR37 XP, 1μΜ / cell viability (kinase inhibitor library screening): 72 h, IGR37 XP; for Cell viability in kinase inhibitor library screening, IGR37 XP, 1μΜ: in %

SMILES	Cell viability in kinase inhibitor library screening, 501Mel Parental, 1μΜ ([1]; 1μΜ)	Cell viability in kinase inhibitor library screening, 501Mel Parental, 10μΜ ([1]; 10μΜ)	Cell viability in kinase inhibitor library screening, 501Mel GP, 1μΜ ([2]; 1μΜ)	Cell viability in kinase inhibitor library screening, 501Mel GP, 10μΜ ([2]; 10μΜ)	Cell viability in kinase inhibitor library screening, 501Mel XP, 1μΜ ([3]; 1μΜ)	Cell viability in kinase inhibitor library screening, 501Mel XP, 10μΜ ([3]; 10μΜ)	Cell viability in kinase inhibitor library screening, A375 Parental, 10μΜ ([4]; 10μΜ)	Cell viability in kinase inhibitor library screening, A375 Parental, 1μΜ ([4]; 1μΜ)	Cell viability in kinase inhibitor library screening, A375 GP, 1μΜ ([5]; A375 GP, 72 h)	Cell viability in kinase inhibitor library screening, A375 GP, 10μΜ ([5]; A375 GP, 10μΜ, 72 h)	Cell viability in kinase inhibitor library screening, A375 XP, 1μΜ ([6]; 1μΜ)	Cell viability in kinase inhibitor library screening, A375 XP, 10μΜ ([6]; 10μΜ)	Cell viability in kinase inhibitor library screening, IGR37 Parental, 1μΜ ([7]; 1μΜ)	Cell viability in kinase inhibitor library screening, IGR37 Parental, 10μΜ ([7]; 10μΜ)	Cell viability in kinase inhibitor library screening, IGR37 GP, 10μΜ ([8]; 10μΜ) [%]	Cell viability in kinase inhibitor library screening, IGR37 GP, 1μΜ ([8]; 1μΜ)	Cell viability in kinase inhibitor library screening, IGR37 XP, 10μΜ ([9]; 10μΜ) [%]	Cell viability in kinase inhibitor library screening, IGR37 XP, 1μΜ ([9]; 1μΜ)	further results
OCCn1cc(-c2ccc3c(c2)CC/C3=N\O)c(-c2ccncc2)n1 [GDC-0879]	79.0	63.5	108.3	94.0	97.9	89.8	28.9	49.6	85.8	44.0	91.2	47.1	66.4	27.4	88.9	99.1	60.4	110.2	
NCC(=O)Nc1ccc(-n2nc(C(F)(F)F)cc2-c2ccc3c(ccc4ccccc43)c2)cc1 [OSU-03012]	91.0	0.3	94.0	-0.274	90.0	-0.352	0.756	91.6	89.7	0.547	91.6	0.7		0.5	2.3	99.0	1.4	109.9	
NC(=O)c1ccc(N(C(N)=O)c2c(F)cccc2F)nc1-c1ccc(F)cc1F [VX-702]		97.1	99.8	87.7	91.5	83.4	90.0	102.7		97.2	104.7	104.6		103.3	93.6	98.3	76.8		
CCN1CCN(c2ccc(Nc3cc(N(C)C(=O)Nc4c(Cl)c(OC)cc(OC)c4Cl)ncn3)cc2)CC1 [BGJ398 (NVP-BGJ398)]																			viability at 1 µM ([1]; Homo sapiens, read-out: cell viability, 501Mel Parental, 1μΜ): 96.6%; viability at 10 µM ([1]; Homo sapiens, read-out: cell viability, 501Mel Parental, 10μΜ): 0.424%; viability at 1 µM ([2]; Homo sapiens, read-out: cell viability, 501Mel GP, 1μΜ): 108%; viability at 10 µM ([2]; Homo sapiens, read-out: cell viability, 501Mel GP, 10μΜ): 0.142%; viability at 1 µM ([3]; Homo sapiens, read-out: cell viability, 501Mel XP, 1μΜ): 97.9%; viability at 10 µM ([3]; Homo sapiens, read-out: cell viability, 501Mel XP, 10μΜ): -0.109%; viability at 1 µM ([4]; Homo sapiens, A-375, 72 h, read-out: cell viability, A375 Parental, 1μΜ): 101%; viability at 10 µM ([4]; Homo sapiens, A-375, 72 h, read-out: cell viability, A375 Parental, 10μΜ): 9%; viability at 1 µM ([5]; Homo sapiens, A-375, 72 h, read-out: cell viability, A375 GP, 1μΜ): 101%; viability at 10 µM ([5]; Homo sapiens, A-375, 72 h, read-out: cell viability, A375 GP, 10μΜ): 6.6%; viability at 1 µM ([6]; Homo sapiens, A-375, 72 h, read-out: cell viability, A375 XP, 1μΜ): 104%; viability at 10 µM ([6]; Homo sapiens, A-375, 72 h, read-out: cell viability, A375 XP, 10μΜ): 3.9%; viability at 1 µM ([7]; Homo sapiens, IGR-37, 72 h, read-out: cell viability, IGR37 Parental, 1μΜ): 100%; viability at 10 µM ([7]; Homo sapiens, IGR-37, 72 h, read-out: cell viability, IGR37 Parental, 10μΜ): 4.3%; viability at 1 µM ([8]; Homo sapiens, IGR-37, 72 h, read-out: cell viability, IGR37 GP, 1μΜ): 87.7%; viability at 10 µM ([8]; Homo sapiens, IGR-37, 72 h, read-out: cell viability, IGR37 GP, 10μΜ): 3.2%; viability at 1 µM ([9]; Homo sapiens, IGR-37, 72 h, read-out: cell viability, IGR37 XP, 1μΜ): 97.5%; viability at 10 µM ([9]; Homo sapiens, IGR-37, 72 h, read-out: cell viability, IGR37 XP, 10μΜ): 1%
CO[C@H]1C[C@@H]2CC[C@@H](C)[C@@](O)(O2)C(=O)C(=O)N2CCCC[C@H]2C(=O)O[C@H]([C@H](C)C[C@@H]2CC[C@@H](O)[C@H](OC)C2)CC(=O)[C@H](C)/C=C(\C)[C@@H](O)[C@@H](OC)C(=O)[C@H](C)C[C@H](C)/C=C/C=C/C=C/1C [Rapamycin (Sirolimus)]	84.7	77.5	69.9	59.4	56.7	42.7	72.3	80.2	80.8	79.4	79.4	83.3	79.9	81.5	76.7	92.2	49.9	96.0	
Cc1cnc(NC(=O)Nc2cc(Br)c(C)cc2OC[C@@H]2CNCCO2)cn1 [LY2603618 (IC-83)]																			cell viability (kinase inhibitor library screening) ([1]; 1μΜ): 84.2%; cell viability (kinase inhibitor library screening) ([1]; 10μΜ): 2.1%; cell viability (kinase inhibitor library screening) ([2]; 1μΜ): 91.7%; cell viability (kinase inhibitor library screening) ([2]; 10μΜ): 4.4%; cell viability (kinase inhibitor library screening) ([3]; 1μΜ): 69.5%; cell viability (kinase inhibitor library screening) ([3]; 10μΜ): -0.8%; cell viability (kinase inhibitor library screening) ([4]; 10μΜ): 15.4%; cell viability (kinase inhibitor library screening) ([4]; 1μΜ): 86.3%; cell viability (kinase inhibitor library screening) ([5]; A375 GP, 10μΜ, 72 h): 11.5%; cell viability (kinase inhibitor library screening) ([6]; 1μΜ): 87.2%; cell viability (kinase inhibitor library screening) ([6]; 10μΜ): 15.7%; cell viability (kinase inhibitor library screening) ([7]; 1μΜ): 81.7%; cell viability (kinase inhibitor library screening) ([7]; 10μΜ): 37.5%; cell viability (kinase inhibitor library screening) ([8]; 1μΜ): 73.8%; cell viability (kinase inhibitor library screening) ([8]; 10μΜ): 67.9%; cell viability (kinase inhibitor library screening) ([9]; 1μΜ): 52.7%; cell viability (kinase inhibitor library screening) ([9]; 10μΜ): 26.7%
